Data from patent US9512075B2 (OKAYAMA UNIVERSITY, priority 2012, dated 2016).
≈ marks a conversion by molar mass, not a printed value. Like-named read-outs stand apart in the source and are kept apart here.

Columns and labels:
Assay type in all cases: cell-based
[1] = tested on: Escherichia coli BE1121 strain; assay: MIC for Escherichia coli BE1121 strain; conditions: Escherichia coli, BE1121STRAIN, read-out: MIC Escherichia coli BE1121
[2] = tested on: Escherichia coli K-12 strain; assay: MIC for Escherichia coli K-12 strain; conditions: Escherichia coli, K12STRAIN, read-out: MIC Escherichia coli K12
[3] = tested on: Staphylococcus aureus Smith strain; assay: MIC for Staphylococcus aureus Smith strain; conditions: Smith strain, regular bouillon medium, 37° C. overnight, turbidity, read-out: MIC Straphyrococcus aureus Smith
[4] = tested on: Staphylococcus aureus MRSA No. 17 (methicillin-resistant Staphylococcus aureus: MRSA); assay: MIC for Staphylococcus aureus MRSA No. 17; conditions: MRSA No. 17, regular bouillon medium, 37° C. overnight, turbidity, read-out: MIC Straphyrococcus aureus MRSA No. 17 (MRSA)
[5] = tested on: Enterococcus faecalis 5038 strain; assay: MIC for Enterococcus faecalis 5038 strain; conditions: 5038 strain, Heart Infusion Broth medium, 37° C. overnight, turbidity, read-out: MIC Enterococcus faecalis 5038
[6] = tested on: Clostridium perfringens PB6K strain; assay: microbe, parasite or virus in culture; conditions: Clostridium perfringens, PB6KSTRAIN, read-out: MIC Clostridium perfringens PB6K, PB6K strain; CD medium, 37° C. overnight, 10% CO2-containing anaerobic conditions
[7] = tested on: Enterococcus faecalis NCTC12201 strain (vancomycin-resistant Enterococcus: VRE); assay: MIC for Enterococcus faecalis NCTC12201 strain (VRE); conditions: read-out: MIC Enterococcus faecalis NCTC 12201 (VRE)
[8] = tested on: Staphylococcus aureus 209P strain; assay: MIC for Staphylococcus aureus 209P strain; conditions: Staphylococcus aureus, read-out: MIC Straphyrococcus aureus 209P
[9] = tested on: Clostridium difficile JCM1296 strain; assay: microbe, parasite or virus in culture; conditions: Clostridioides difficile, JCM1296, read-out: MIC Clostridium difficile JCM1296
[10] = BE1121 strain, regular bouillon medium, 37° C. overnight, turbidity
[11] = K-12 strain, regular bouillon medium, 37° C. overnight, turbidity
[12] = NCTC12201 strain (VRE), Heart Infusion Broth medium, 37° C. overnight, turbidity
[13] = 209P strain, regular bouillon medium, 37° C. overnight, turbidity

SMILES | MIC [1, 10] [µg/mL] | MIC [2, 11] [µg/mL] | MIC [3] [µg/mL] | MIC [4] [µg/mL] | MIC [5] [µg/mL] | MIC [6] [µg/mL] | MIC [7, 12] [µg/mL] | MIC [8, 13] [µg/mL] | MIC [9] [µg/mL] | MIC [7] [µg/mL] | MIC [1] [µg/mL] | MIC [2] [µg/mL] | MIC ([8]; 209P) [µg/mL]
CCCCCCCCCC(=O)N1C(=O)/C(=C(\O)COC)c2cc(F)ccc21 [A050, N-decanoyl-3-methoxyacetyl-5-fluoro-2-oxyindole] | 128 (≈ 339 µM) | 256 (≈ 678 µM) | 0.5 (≈ 1.32 µM) | 256 (≈ 678 µM) | 0.5 (≈ 1.32 µM) | 0.5 (≈ 1.32 µM) | 0.5 (≈ 1.32 µM) | 256 (≈ 678 µM) | 0.25 (≈ 0.662 µM) | – | – | – | –
CCCCCCCCCCOCC(O)=C1C(=O)N(C(C)=O)c2ccc(Br)cc21 [A029, N-acetyl-5-bromo-3-decyloxyacetyl-2-oxyindole] | 128 (≈ 283 µM) | 128 (≈ 283 µM) | 0.5 (≈ 1.11 µM) | 128 (≈ 283 µM) | 0.25 (≈ 0.553 µM) | < 0.125 | – | 128 (≈ 283 µM) | < 0.125 | < 0.125 | – | – | –
CCCCCCCCNC(=O)c1c(O)c2ccccc2oc1=O [B020, 3-(octylaminocarbonyl)-4-hydroxycoumarin] | 32 (≈ 101 µM) | 64 (≈ 202 µM) | 8 (≈ 25.2 µM) | 16 (≈ 50.4 µM) | 1 (≈ 3.15 µM) | 8 (≈ 25.2 µM) | 1 (≈ 3.15 µM) | 8 (≈ 25.2 µM) | 1 (≈ 3.15 µM) | – | – | – | –
CCCCCCCCCC(O)=C1C(=O)N(C(=O)Nc2ccc(OC)cc2)c2ccccc21 [A046, N-(4-methoxyphenylaminocarbonyl)-3-decanoyl-2-oxyindole] | 256 (≈ 586 µM) | 256 (≈ 586 µM) | 256 (≈ 586 µM) | 256 (≈ 586 µM) | 256 (≈ 586 µM) | 8 (≈ 18.3 µM) | 256 (≈ 586 µM) | 256 (≈ 586 µM) | 1 (≈ 2.29 µM) | – | – | – | –
CCCCCCCCCCOCC(O)=C1C(=O)N(C(C)=O)c2ccccc21 [A013, N-acetyl-3-decyloxyacetyl-2-oxyindole] | 256 (≈ 685 µM) | 256 (≈ 685 µM) | 256 (≈ 685 µM) | 256 (≈ 685 µM) | 64 (≈ 171 µM) | 0.5 (≈ 1.34 µM) | 32 (≈ 85.7 µM) | 256 (≈ 685 µM) | 0.25 (≈ 0.669 µM) | – | – | – | –
CCCCCCCCCC(=O)N1C(=O)C(=C(C)O)c2ccccc21 [A022, N-decanoyl-3-acetyl-2-oxyindole] | 16 (≈ 48.6 µM) | 128 (≈ 389 µM) | 2 (≈ 6.07 µM) | 4 (≈ 12.1 µM) | 1 (≈ 3.04 µM) | 4 (≈ 12.1 µM) | 1 (≈ 3.04 µM) | 8 (≈ 24.3 µM) | 0.25 (≈ 0.759 µM) | – | – | – | –
CCCCCCCCCCOCC(=O)c1c(O)c2cc(F)ccc2oc1=O [B019, 3-decyloxyacetyl-6-fluoro-4-hydroxycoumarin] | 256 (≈ 676 µM) | 256 (≈ 676 µM) | 256 (≈ 676 µM) | 256 (≈ 676 µM) | 256 (≈ 676 µM) | < 0.125 | 256 (≈ 676 µM) | 256 (≈ 676 µM) | < 0.125 | – | – | – | –
CCCCCCCCCCOCC(=O)c1c(O)c2cc(C)ccc2oc1=O [B029, 3-decyloxyacetyl-6-methyl-4-hydroxycoumarin] | 256 (≈ 684 µM) | 256 (≈ 684 µM) | 4 (≈ 10.7 µM) | 256 (≈ 684 µM) | 8 (≈ 21.4 µM) | < 0.125 | 2 (≈ 5.34 µM) | 256 (≈ 684 µM) | < 0.125 | – | – | – | –
CCCCCCCCCC(O)=C1C(=O)Nc2ccc(F)cc21 [A004, 3-decanoyl-5-fluoro-2-oxyindole] | – | – | 16 (≈ 52.4 µM) | 32 (≈ 105 µM) | 16 (≈ 52.4 µM) | 8 (≈ 26.2 µM) | 15 (≈ 49.1 µM) | – | 2 (≈ 6.55 µM) | – | 128 (≈ 419 µM) | 128 (≈ 419 µM) | 16 (≈ 52.4 µM)
CCCCCCCCCCOCC(O)=C1C(=O)N(C(=O)Nc2ccc(Br)cc2)c2ccccc21 [A038, N-(4-bromophenylaminocarbonyl)-3-decyloxyacetyl-2-oxyindole] | 128 (≈ 242 µM) | 128 (≈ 242 µM) | 64 (≈ 121 µM) | 64 (≈ 121 µM) | 8 (≈ 15.1 µM) | 16 (≈ 30.2 µM) | 16 (≈ 30.2 µM) | 64 (≈ 121 µM) | 32 (≈ 60.4 µM) | – | – | – | –
CCCCCCCCOCC(O)=C1C(=O)N(C(=O)Nc2ccccc2)c2ccccc21 [A058, N-(phenylaminocarbonyl)-3-octyloxyacetyl-2-oxyindole] | 128 (≈ 303 µM) | 128 (≈ 303 µM) | 0.5 (≈ 1.18 µM) | 128 (≈ 303 µM) | 0.25 (≈ 0.592 µM) | < 0.125 | 0.25 (≈ 0.592 µM) | 64 (≈ 151 µM) | < 0.125 | – | – | – | –
